{"source": "ChEMBL document CHEMBL5291721", "about": "“A preclinical secondary pharmacology resource illuminates target-adverse drug reaction associations of marketed drugs” (Nat Commun, 2023); note: assay procedure not described here", "key": {"[1]": {"target": "Gamma-aminobutyric acid receptor subunit alpha-1 (Rattus norvegicus, UniProt P62813)", "sequence (P62813 whole entry)": "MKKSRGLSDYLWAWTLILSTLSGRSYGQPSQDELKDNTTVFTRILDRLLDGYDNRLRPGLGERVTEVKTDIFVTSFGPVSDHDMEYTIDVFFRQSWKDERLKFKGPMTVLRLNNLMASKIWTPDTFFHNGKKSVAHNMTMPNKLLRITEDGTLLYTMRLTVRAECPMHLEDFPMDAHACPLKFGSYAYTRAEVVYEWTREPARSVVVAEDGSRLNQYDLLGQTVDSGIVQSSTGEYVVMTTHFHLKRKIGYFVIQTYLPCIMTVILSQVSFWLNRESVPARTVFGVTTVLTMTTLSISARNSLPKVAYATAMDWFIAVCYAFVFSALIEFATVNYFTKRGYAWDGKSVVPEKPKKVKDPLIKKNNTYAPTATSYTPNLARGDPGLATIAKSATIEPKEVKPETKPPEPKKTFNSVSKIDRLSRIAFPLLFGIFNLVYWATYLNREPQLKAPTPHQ"}, "Androgen receptor": {"target": "T1, Androgen receptor (Rattus norvegicus, UniProt P15207)", "T1 sequence (P15207 whole entry)": "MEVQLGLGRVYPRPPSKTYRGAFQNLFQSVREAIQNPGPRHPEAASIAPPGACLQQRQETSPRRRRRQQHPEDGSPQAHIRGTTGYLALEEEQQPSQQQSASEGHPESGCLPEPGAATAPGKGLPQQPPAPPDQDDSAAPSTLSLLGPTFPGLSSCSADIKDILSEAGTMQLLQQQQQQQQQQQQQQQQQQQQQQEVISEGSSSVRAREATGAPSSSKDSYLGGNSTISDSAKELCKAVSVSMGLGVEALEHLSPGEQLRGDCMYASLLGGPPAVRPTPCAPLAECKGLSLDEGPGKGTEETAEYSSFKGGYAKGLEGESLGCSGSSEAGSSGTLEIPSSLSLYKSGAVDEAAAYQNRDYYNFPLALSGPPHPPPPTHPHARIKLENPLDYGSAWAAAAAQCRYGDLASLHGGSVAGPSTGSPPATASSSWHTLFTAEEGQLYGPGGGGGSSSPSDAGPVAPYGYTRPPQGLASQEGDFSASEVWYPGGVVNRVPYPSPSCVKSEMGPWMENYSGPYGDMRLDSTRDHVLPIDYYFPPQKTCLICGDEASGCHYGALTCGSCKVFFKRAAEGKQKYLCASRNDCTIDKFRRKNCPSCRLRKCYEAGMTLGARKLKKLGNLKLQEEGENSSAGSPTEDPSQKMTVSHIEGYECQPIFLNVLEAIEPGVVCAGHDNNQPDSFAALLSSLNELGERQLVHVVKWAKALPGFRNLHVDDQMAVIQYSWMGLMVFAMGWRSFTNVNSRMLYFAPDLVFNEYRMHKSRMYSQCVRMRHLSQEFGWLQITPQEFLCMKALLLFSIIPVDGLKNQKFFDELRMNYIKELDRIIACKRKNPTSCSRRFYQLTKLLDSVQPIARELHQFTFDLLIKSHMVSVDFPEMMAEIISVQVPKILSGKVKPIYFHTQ", "format": "functional"}, "[2]": {"target": "T2, Gastric inhibitory polypeptide receptor (Homo sapiens, UniProt P48546)", "T2 sequence (P48546 whole entry)": "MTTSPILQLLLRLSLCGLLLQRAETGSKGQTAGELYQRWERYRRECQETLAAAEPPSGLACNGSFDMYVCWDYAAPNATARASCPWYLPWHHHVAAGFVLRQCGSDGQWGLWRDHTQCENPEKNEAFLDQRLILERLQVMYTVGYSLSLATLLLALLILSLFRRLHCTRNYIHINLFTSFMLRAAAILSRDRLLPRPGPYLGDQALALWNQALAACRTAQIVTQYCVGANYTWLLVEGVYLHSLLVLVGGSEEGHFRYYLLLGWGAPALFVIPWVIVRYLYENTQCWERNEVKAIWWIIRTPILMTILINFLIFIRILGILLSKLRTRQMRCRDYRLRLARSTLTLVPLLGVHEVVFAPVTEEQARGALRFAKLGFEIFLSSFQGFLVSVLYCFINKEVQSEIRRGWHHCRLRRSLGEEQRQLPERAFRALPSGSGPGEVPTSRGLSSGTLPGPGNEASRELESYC"}, "[3]": {"target": "T3, Neuropeptide Y receptor type 2 (Homo sapiens, UniProt P49146)", "T3 sequence (P49146 whole entry)": "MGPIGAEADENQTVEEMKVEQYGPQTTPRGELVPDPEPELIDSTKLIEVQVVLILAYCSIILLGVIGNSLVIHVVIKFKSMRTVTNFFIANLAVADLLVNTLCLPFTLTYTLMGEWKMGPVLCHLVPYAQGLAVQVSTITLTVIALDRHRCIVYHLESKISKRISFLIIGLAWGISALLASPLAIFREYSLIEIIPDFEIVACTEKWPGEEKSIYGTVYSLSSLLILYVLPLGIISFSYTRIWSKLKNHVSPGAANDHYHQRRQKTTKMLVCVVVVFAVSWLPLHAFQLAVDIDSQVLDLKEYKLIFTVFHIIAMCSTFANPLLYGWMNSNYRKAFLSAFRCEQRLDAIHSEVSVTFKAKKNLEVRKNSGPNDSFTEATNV"}, "[4]": {"target": "Neurotensin receptor type 1 (Homo sapiens, UniProt P30989)", "sequence (P30989 whole entry)": "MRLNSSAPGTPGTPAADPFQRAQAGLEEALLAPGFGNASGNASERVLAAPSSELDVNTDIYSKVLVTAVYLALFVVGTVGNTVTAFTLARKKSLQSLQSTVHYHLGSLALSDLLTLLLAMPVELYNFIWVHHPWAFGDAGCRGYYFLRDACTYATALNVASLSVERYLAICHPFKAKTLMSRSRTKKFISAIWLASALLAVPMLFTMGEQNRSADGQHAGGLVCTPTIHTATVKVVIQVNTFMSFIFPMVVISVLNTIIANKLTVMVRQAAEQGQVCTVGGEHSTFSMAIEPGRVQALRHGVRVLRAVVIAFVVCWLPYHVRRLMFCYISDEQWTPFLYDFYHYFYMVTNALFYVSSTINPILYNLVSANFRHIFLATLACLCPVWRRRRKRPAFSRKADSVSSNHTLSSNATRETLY"}, "Progesterone receptor": {"target": "T4, Progesterone receptor (Homo sapiens, UniProt P06401)", "T4 sequence (P06401 whole entry)": "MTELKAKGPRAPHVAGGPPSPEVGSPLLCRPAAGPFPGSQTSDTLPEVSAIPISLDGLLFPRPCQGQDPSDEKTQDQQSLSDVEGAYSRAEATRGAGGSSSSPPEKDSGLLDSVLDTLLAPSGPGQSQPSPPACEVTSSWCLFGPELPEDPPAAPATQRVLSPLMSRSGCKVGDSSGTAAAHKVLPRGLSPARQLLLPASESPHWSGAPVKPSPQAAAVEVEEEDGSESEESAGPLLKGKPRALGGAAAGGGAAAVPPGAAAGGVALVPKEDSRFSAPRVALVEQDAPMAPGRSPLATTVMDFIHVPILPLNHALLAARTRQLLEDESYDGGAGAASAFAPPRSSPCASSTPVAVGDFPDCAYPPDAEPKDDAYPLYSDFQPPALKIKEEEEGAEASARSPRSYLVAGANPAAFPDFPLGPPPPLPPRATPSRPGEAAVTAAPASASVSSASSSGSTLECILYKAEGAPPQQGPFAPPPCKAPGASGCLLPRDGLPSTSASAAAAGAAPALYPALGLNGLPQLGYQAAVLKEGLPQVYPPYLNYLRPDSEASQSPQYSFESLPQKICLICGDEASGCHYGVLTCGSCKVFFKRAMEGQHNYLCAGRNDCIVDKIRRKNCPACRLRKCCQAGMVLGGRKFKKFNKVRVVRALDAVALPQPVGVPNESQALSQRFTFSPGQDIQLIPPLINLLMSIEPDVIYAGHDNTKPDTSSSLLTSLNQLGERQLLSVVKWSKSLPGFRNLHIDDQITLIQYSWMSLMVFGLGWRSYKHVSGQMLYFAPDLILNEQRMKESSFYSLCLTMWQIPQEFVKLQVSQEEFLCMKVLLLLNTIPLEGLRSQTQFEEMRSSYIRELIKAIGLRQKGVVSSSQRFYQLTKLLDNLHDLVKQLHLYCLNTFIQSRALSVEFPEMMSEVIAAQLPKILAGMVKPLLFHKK"}, "[5]": {"target": "5-hydroxytryptamine receptor 2B (Homo sapiens, UniProt P41595)", "sequence (P41595 whole entry)": "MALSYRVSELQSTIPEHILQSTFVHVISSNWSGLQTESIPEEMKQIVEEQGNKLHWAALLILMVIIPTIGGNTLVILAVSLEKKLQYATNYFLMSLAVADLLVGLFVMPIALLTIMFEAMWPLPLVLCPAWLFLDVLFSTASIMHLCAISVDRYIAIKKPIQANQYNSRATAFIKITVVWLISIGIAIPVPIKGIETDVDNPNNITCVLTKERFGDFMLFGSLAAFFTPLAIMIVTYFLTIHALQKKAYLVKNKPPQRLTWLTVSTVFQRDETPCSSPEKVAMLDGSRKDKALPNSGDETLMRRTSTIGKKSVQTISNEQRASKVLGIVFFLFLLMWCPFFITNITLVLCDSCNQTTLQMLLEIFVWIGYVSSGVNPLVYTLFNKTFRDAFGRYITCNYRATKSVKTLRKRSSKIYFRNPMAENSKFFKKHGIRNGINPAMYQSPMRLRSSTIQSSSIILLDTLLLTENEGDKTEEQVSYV"}}, "data": [{"smiles": "NCC(CC(=O)O)c1ccccc1", "note": "(stereo not drawn) [PHENIBUT]", "values": [{"measurement": "AC50", "setting": "[1]", "result": "> 30", "unit": "µM"}]}, {"smiles": "CCC(C)C(CC)C(N)=O", "note": "(stereo not drawn) [VALNOCTAMIDE]", "values": [{"measurement": "AC50", "setting": "Androgen receptor", "result": "> 30", "unit": "µM"}]}, {"smiles": "Cc1cnc(C(=O)NCCc2ccc(S(=O)(=O)NC(=O)NC3CCCCC3)cc2)cn1", "note": "[GLIPIZIDE]", "values": [{"measurement": "AC50", "setting": "[2]", "result": "> 30", "unit": "µM"}, {"measurement": "AC50", "setting": "[3]", "result": "> 30", "unit": "µM"}, {"measurement": "AC50", "setting": "[4]", "result": "> 30", "unit": "µM"}, {"measurement": "AC50", "setting": "Progesterone receptor", "result": "> 30", "unit": "µM"}]}, {"smiles": "COc1ccc(CN(CCN(C)C)c2ccccn2)cc1", "note": "[PYRILAMINE]", "values": [{"measurement": "AC50", "setting": "[1]", "result": "> 30", "unit": "µM"}]}, {"smiles": "C=CCSCC1Nc2cc(Cl)c(S(N)(=O)=O)cc2S(=O)(=O)N1", "note": "(stereo not drawn) [ALTHIAZIDE]", "values": [{"measurement": "AC50", "setting": "[1]", "result": "> 30", "unit": "µM"}]}, {"smiles": "NC(=O)OCC(O)COc1ccc(Cl)cc1", "note": "(stereo not drawn) [CHLORPHENESIN CARBAMATE]", "values": [{"measurement": "AC50", "setting": "[1]", "result": "> 30", "unit": "µM"}]}, {"smiles": "[H]/N=C(/N)N/C(=N/[H])NCCc1ccccc1", "note": "[PHENFORMIN]", "values": [{"measurement": "AC50", "setting": "[2]", "result": "> 30", "unit": "µM"}, {"measurement": "AC50", "setting": "[5]", "result": 8.9, "unit": "µM"}, {"measurement": "AC50", "setting": "[3]", "result": "> 30", "unit": "µM"}, {"measurement": "AC50", "setting": "[4]", "result": "> 30", "unit": "µM"}, {"measurement": "AC50", "setting": "Progesterone receptor", "result": "> 30", "unit": "µM"}]}, {"smiles": "Cc1cc(C(C)(C)C)cc(C)c1CC1=NCCN1", "note": "[XYLOMETAZOLINE]", "values": [{"measurement": "AC50", "setting": "[5]", "result": 1.56, "unit": "µM"}]}, {"smiles": "CCOC(=O)C1=C[C@]2(CC)CCCN3CCc4c(n1c1ccccc41)[C@@H]32", "note": "[VINPOCETINE]", "values": [{"measurement": "AC50", "setting": "[5]", "result": "> 30", "unit": "µM"}]}, {"smiles": "C=C1CC[C@H](O)C/C1=C/C=C1\\CCC[C@]2(C)[C@@H]([C@H](C)/C=C/[C@H](C)C(C)C)CC[C@@H]12", "note": "[ERGOCALCIFEROL]", "values": [{"measurement": "AC50", "setting": "[1]", "result": "> 30", "unit": "µM"}]}, {"smiles": "O=C(O)c1cn(C2CC2)c2cc(N3CCNCC3)c(F)cc2c1=O", "note": "[CIPROFLOXACIN]", "values": [{"measurement": "AC50", "setting": "[2]", "result": "> 30", "unit": "µM"}, {"measurement": "AC50", "setting": "[3]", "result": "> 30", "unit": "µM"}, {"measurement": "AC50", "setting": "[4]", "result": "> 30", "unit": "µM"}, {"measurement": "AC50", "setting": "Progesterone receptor", "result": "> 30", "unit": "µM"}]}, {"smiles": "CC(C(=O)O)c1ccc(-c2ccccc2)c(F)c1", "note": "(stereo not drawn) [FLURBIPROFEN]", "values": [{"measurement": "AC50", "setting": "[1]", "result": "> 30", "unit": "µM"}]}, {"smiles": "CCN(CC)C(=S)S", "note": "[DITIOCARB]", "values": [{"measurement": "AC50", "setting": "[1]", "result": "> 30", "unit": "µM"}]}, {"smiles": "CC(N)Cc1ccc(O)cc1", "note": "(stereo not drawn) [HYDROXYAMPHETAMINE]", "values": [{"measurement": "AC50", "setting": "[1]", "result": "> 30", "unit": "µM"}]}, {"smiles": "CCCC(CCC)C(N)=O", "note": "[VALPROMIDE]", "values": [{"measurement": "AC50", "setting": "Progesterone receptor", "result": "> 30", "unit": "µM"}]}, {"smiles": "CCOC(=O)C1=C(C)NC(C)=C(C(=O)OC)C1c1cccc([N+](=O)[O-])c1", "note": "(stereo not drawn) [NITRENDIPINE]", "values": [{"measurement": "AC50", "setting": "[2]", "result": "> 30", "unit": "µM"}, {"measurement": "AC50", "setting": "[5]", "result": "> 10", "unit": "µM"}, {"measurement": "AC50", "setting": "[3]", "result": "> 30", "unit": "µM"}, {"measurement": "AC50", "setting": "[4]", "result": "> 30", "unit": "µM"}, {"measurement": "AC50", "setting": "Progesterone receptor", "result": "> 30", "unit": "µM"}]}, {"smiles": "CCOC(=O)[C@H](CCc1ccccc1)N[C@@H](C)C(=O)N(CC(=O)O)C1Cc2ccccc2C1", "values": [{"measurement": "AC50", "setting": "[1]", "result": "> 30", "unit": "µM"}]}, {"smiles": "CN1CCN(C2=Nc3ccccc3Oc3ccc(Cl)cc32)CC1", "note": "[LOXAPINE]", "values": [{"measurement": "AC50", "setting": "[1]", "result": "> 30", "unit": "µM"}, {"measurement": "AC50", "setting": "[2]", "result": "> 30", "unit": "µM"}, {"measurement": "AC50", "setting": "[3]", "result": "> 30", "unit": "µM"}, {"measurement": "AC50", "setting": "[4]", "result": "> 30", "unit": "µM"}, {"measurement": "AC50", "setting": "Progesterone receptor", "result": "> 30", "unit": "µM"}]}, {"smiles": "CC(CCc1ccc(O)cc1)NCCc1ccc(O)c(O)c1", "note": "(stereo not drawn) [DOBUTAMINE]", "values": [{"measurement": "AC50", "setting": "[2]", "result": "> 30", "unit": "µM"}, {"measurement": "AC50", "setting": "[5]", "result": "> 10", "unit": "µM"}, {"measurement": "AC50", "setting": "[3]", "result": "> 30", "unit": "µM"}, {"measurement": "AC50", "setting": "[4]", "result": "> 30", "unit": "µM"}, {"measurement": "AC50", "setting": "Progesterone receptor", "result": "> 30", "unit": "µM"}]}, {"smiles": "COc1cc(N)c(Cl)cc1C(=O)NC1CCN(Cc2ccccc2)CC1", "note": "[CLEBOPRIDE]", "values": [{"measurement": "AC50", "setting": "[5]", "result": 0.0079, "unit": "µM"}]}, {"smiles": "CN1C(=O)/C(=N\\NC(N)=S)c2ccccc21", "note": "[METHISAZONE]", "values": [{"measurement": "AC50", "setting": "[1]", "result": 12.3, "unit": "µM"}]}]}
